Values quoted from earlier work in patent EP4516295A1, “PH-INDUCIBLE STRUCTURE-SWITCHING LIPID NANOVECTORS, SEMI-SYNTHETIC EXTRACELLULAR VESICLES, METHODS OF MAKING SAME AND USES THEREOF” (ETH Zurich, priority 2023, dated 2025).

Details: apparent acid dissociation constant prior to incorporation in LNVs

Row | Compound | pKa
1 | CCCCCCCCC(CCCCCC)C(=O)OCCCCCCN(CCCCO)CCCCCCOC(=O)C(CCCCCC)CCCCCCCC (stereo not drawn) [ALC-0315] | 6.09
2 | CCCC/C=C\C/C=C\CCCCCCCCCC1(CCCCCCCC/C=C\C/C=C\CCCCC)OCC(CCCCN(C)C)O1 (stereo not drawn) [DLin-KC4-DMA, N,N-dimethyl-4-(2-((10Z,13Z)-octadeca-10,13-dien-1-yl)-2-((9Z,12Z)-octadeca-9,12-dien-1-yl)-1,3-dioxolan-4-yl)butan-1-amine] | 7.3
3 | CCCCCCCCCCCOC(=O)CCCCCN(CCO)CCCCCCCC(=O)OC(CCCCCCCC)CCCCCCCC [SM-102] | 6.68
4 | CCCCC/C=C\C/C=C\CCCCCCCCOCC(CN(C)C)OCCCCCCCC/C=C\C/C=C\CCCCC (stereo not drawn) [DLin-DMA, 1,2-dilinoleyloxy-N,N-dimethyl-3-aminopropane] | 6.8
5 | CCCC/C=C\C/C=C\CCCCCCCCCC1(CCCCCCCC/C=C\C/C=C\CCCCC)OCC(CN(C)C)O1 [D-Lin-K-DMA, N,N-dimethyl-1-(2-((10Z,13Z)-octadeca-10,13-dien-1-yl)-2-((9Z,12Z)-octadeca-9,12-dien-1-yl)-1,3-dioxolan-4 yl)methanamine] | 5.9
6 | CCCCC/C=C\C/C=C\CCCCCCCCC(CCCCCCCC/C=C\C/C=C\CCCCC)OC(=O)CCCN(C)C [DLin-MC3-DMA, 4-(dimethylamino)-butanoic acid, (10Z,13Z)-1-(9Z,12Z)-9,12-octadecadien-1-yl-10,13-nonadecadien-1-yl ester] | 6.44
7 | CCCCCC/C=C\COC(=O)CCCCCCCC(CCCCCCCC(=O)OC/C=C\CCCCCC)OC(=O)CCCN(C)C [L319] | 6.38
8 | CCCC/C=C\C/C=C\CCCCCCCCCC1(CCCCCCCC/C=C\C/C=C\CCCCC)OCC(CCN(C)C)O1 (stereo not drawn) [DLin-KC2-DMA, N,N-dimethyl-2-(2-((10Z,13Z)-octadeca-10,13-dien-1-yl)-2-((9Z,12Z)-octadeca-9,12-dien-1-yl)-1,3-dioxolan-4-yl)ethan-1-amine] | 6.68
9 | CCCC/C=C\C/C=C\CCCCCCCCCC1(CCCCCCCC/C=C\C/C=C\CCCCC)OCC(CCCN(C)C)O1 (stereo not drawn) [DLin-KC3-DMA, N,N-dimethyl-3-(2-((10Z,13Z)-octadeca-10,13-dien-1-yl)-2-((9Z,12Z)-octadeca-9,12-dien-1-yl)-1,3-dioxolan-4-yl)propan-1-amine] | 7.2
